Results from the supplement of paper PMC10307832.

Experiments:
Assay in all cases: relative viability (nuclei count vs DMSO), 5 days (fraction); higher = more cells survive
BI-D1870 + Dasatinib = compound: CC(C)CCN1c2nc(Nc3cc(F)c(O)c(F)c3)ncc2N(C)C(=O)C1C [BI-D1870] + Cc1nc(Nc2ncc(C(=O)Nc3c(C)cccc3Cl)s2)cc(N2CCN(CCO)CC2)n1 [Dasatinib] (partner 0.075 µM)
Summary of the method: (§1)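 The day after seeding in 1536-well plates, lung cancer cell lines were treated by pin tool with a single drug, or with a fixed anchor-drug dose together with five library-drug doses (not always all listed) in √10 steps. After 5 days, a combined fix-and-stain solution (final 0.05% Triton X-100, 1% formaldehyde, 1 ug/ml Hoechst) was added. Nuclei counted on 4× images gave relative viability as treated counts over vehicle counts, reported as the median of duplicate plates.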

Zebularine + Trametinib = compound: O=c1ncccn1[C@@H]1O[C@H](CO)[C@@H](O)[C@H]1O [Zebularine] + CC(=O)Nc1cccc(-n2c(=O)n(C3CC3)c(=O)c3c(Nc4ccc(I)cc4F)n(C)c(=O)c(C)c32)c1 [Trametinib] (partner 0.02 µM)
Summary of the method: as §1

Zebularine + Foretinib = compound: O=c1ncccn1[C@@H]1O[C@H](CO)[C@@H](O)[C@H]1O [Zebularine] + COc1cc2c(Oc3ccc(NC(=O)C4(C(=O)Nc5ccc(F)cc5)CC4)cc3F)ccnc2cc1OCCCN1CCOCC1 [Foretinib] (partner 0.25 µM)
Summary of the method: as §1

Zebularine + Pictilisib = compound: O=c1ncccn1[C@@H]1O[C@H](CO)[C@@H](O)[C@H]1O [Zebularine] + CS(=O)(=O)N1CCN(Cc2cc3nc(-c4cccc5[nH]ncc45)nc(N4CCOCC4)c3s2)CC1 [Pictilisib] (partner 1 µM)
Summary of the method: as §1

Cell Line | relative viability (BI-D1870 + Dasatinib; first compound 0.04 µM) | relative viability (BI-D1870 + Dasatinib; first compound 0.1265 µM) | relative viability (BI-D1870 + Dasatinib; first compound 0.4 µM) | relative viability (BI-D1870 + Dasatinib; first compound 1.265 µM) | relative viability (BI-D1870 + Dasatinib; first compound 4 µM) | relative viability (Zebularine + Trametinib; first compound 1 µM) | relative viability (Zebularine + Trametinib; first compound 3.162 µM) | relative viability (Zebularine + Trametinib; first compound 10 µM) | relative viability (Zebularine + Trametinib; first compound 31.62 µM) | relative viability (Zebularine + Trametinib; first compound 100 µM) | relative viability (Zebularine + Foretinib; first compound 1 µM) | relative viability (Zebularine + Foretinib; first compound 3.162 µM) | relative viability (Zebularine + Foretinib; first compound 10 µM) | relative viability (Zebularine + Foretinib; first compound 31.62 µM) | relative viability (Zebularine + Foretinib; first compound 100 µM) | relative viability (Zebularine + Pictilisib; first compound 1 µM) | relative viability (Zebularine + Pictilisib; first compound 3.162 µM) | relative viability (Zebularine + Pictilisib; first compound 10 µM) | relative viability (Zebularine + Pictilisib; first compound 31.62 µM) | relative viability (Zebularine + Pictilisib; first compound 100 µM)
HCC-366 | 0.633 | 0.528 | 0.603 | 0.731 | 0.427 | 0.425 | 0.402 | 0.274 | 0.313 | 0.0973 | 0.935 | 0.922 | 0.797 | 0.65 | 0.163 | 0.16 | 0.133 | 0.119 | 0.177 | 0.124
EMC-BAC-2 | 0.344 | 0.326 | 0.377 | 0.316 | 0.296 | 0.97 | 0.9 | 0.766 | 0.901 | 0.941 | 1.09 | 1.02 | 0.856 | 1.04 | 1.03 | 0.536 | 0.562 | 0.493 | 0.606 | 0.546
NCI-H2405 | 0.253 | 0.19 | 0.218 | 0.215 | 0.219 | 0.602 | 0.602 | 0.516 | 0.683 | 0.532 | 1.04 | 1.05 | 1.07 | 0.986 | 0.664 | 0.476 | 0.474 | 0.399 | 0.387 | 0.409
NCI-H358 | 0.177 | 0.172 | 0.195 | 0.257 | 0.288 | 0.146 | 0.134 | 0.117 | 0.145 | 0.113 | 0.723 | 0.602 | 0.476 | 0.391 | 0.184 | 0.344 | 0.28 | 0.395 | 0.325 | 0.212
NCI-H1944 | 0.216 | 0.214 | 0.215 | 0.253 | 0.238 | 0.481 | 0.411 | 0.45 | 0.498 | 0.419 | 0.966 | 0.859 | 0.858 | 0.81 | 0.649 | 0.375 | 0.363 | 0.325 | 0.41 | 0.347
EPLC-272H | 0.414 | 0.38 | 0.338 | 0.364 | 0.32 | 0.348 |  | 0.258 | 0.223 | 0.352 | 0.958 | 0.591 | 0.6 | 0.631 | 0.468 | 0.342 |  |  | 0.297 | 0.273
NCI-H1915 | 0.356 | 0.276 | 0.294 | 0.274 | 0.261 | 0.315 | 0.31 | 0.322 | 0.319 | 0.287 | 1.3 | 1.11 |  | 1.26 | 0.984 | 1.07 | 0.887 | 0.774 | 1.02 | 0.907
NCI-H596 | 0.633 | 0.475 | 0.597 | 0.684 | 0.564 | 0.853 | 0.904 | 0.58 | 0.918 | 0.774 | 0.75 | 0.926 | 0.559 | 0.891 | 0.602 | 0.304 | 0.373 | 0.361 | 0.42 | 0.362
